# From patent publication US11058619B2, “Carboxylated polyphenol derivatives and their cosmetic use” (L'ORÉAL, priority 2016, dated 2021)
# Values joined by “and” are separate entries in the source; they are usually repeats but may differ in a detail not shown here. Equal entries are not always repeated.
# Assays:
# [1] = system: normal human melanocytes; assay: Depigmenting activity: melanin produced by normal human melanocytes in vitro; type: cell-based
# Method: The measurement of the depigmenting activity (reduction in the production of melanin) of compounds of formula (I) was performed by assaying the melanin produced by normal human melanocytes in vitro as follows.
# First of all, normal human melanocytes are cultured and dispensed into 384 wells. After 24 hours, the culture medium was replaced with a medium containing compounds of formula (I) to be evaluated. The cells were incubated for 72 hours before measurement of the final optical density, which measures the amount of melanin produced by the melanocytes. A […] is performed using a wide concentration range of the compounds evaluated. Thus, by making the concentrations and the measurements of melanin correspond, it is possible to determine an IC50 in μM: concentration at which 50% decrease in melanin synthesis is achieved.
# [2] = system: HAS3 marker; assay: Gene marker expression (HAS3) in human epidermal keratinocytes by RT-qPCR; type: cell-based
# Method: Human epidermal keratinocytes were seeded in 48 well-culture plate and cultured for 48 hours at 37° C. and 5% of CO2 in culture medium with renewal of culture medium after the first 24 hours. At the end of incubation, culture medium was replaced by assay medium containing or not (control) raw material and cells were incubated for additional 24 hours. All experimental conditions were performed in n=3. At the end of treatment, cells were washed twice in PBS (w/o CaCl2, w/o MgCl2) and RNA extraction was performed using MagMAX™-96 Total RNA Isolation Kit (Ambion cat n° AM8130) according to manufacturer recommendation. RNA quantification and quality control were performed using Labchip GX (Perkin Elmer). Relative expression of selected markers was measured by two steps RT-qPCR. In a first step, a reverse transcription was performed using the Quantitect® Reverse transcription kit (QIAGEN) and according to manufacturer recommendation. Then, PCR experiments were performed using a LightCycler® 480 Real-Time PCR System measuring SYBR®Green incorporation (Roche).
smiles,measurement,setting,value
O=C(O)c1c(O)cc(/C=C/c2ccc(O)cc2)cc1O [Compound W],IC50,"[1]; Melanocyte, normal human melanocytes, 72 hours incubation, optical density, read-out: IC50, inhibiting effect on the production of melanin",25 µM
same,Mean percentage Depigmentation,[1]; concentration 0.000003125 (unit not given),15.6%
same,Mean percentage Depigmentation,[1]; concentration 0.00000625 (unit not given),22.8%
same,Mean percentage Depigmentation,[1]; concentration 0.0000125 (unit not given),32.8%
same,Mean percentage Depigmentation,[1]; concentration 0.000025 (unit not given),43.0%
same,Mean percentage Depigmentation,[1]; concentration 0.00005 (unit not given),76.7%
same,Mean percentage Depigmentation,[1]; concentration 0.0001 (unit not given),99.7%
same,Mean percentage Depigmentation,[1]; concentration 0.0002 (unit not given),125.6%
same,Mean percentage Depigmentation,[1]; concentration 1.5625*10^−6 (unit not given),9.7%
same,Mean percentage Depigmentation,[1]; concentration 3.90625*10^−7 (unit not given),−0.9%
same,Mean percentage Depigmentation,[1]; concentration 7.8125*10^−7 (unit not given),5.5%
same,depigmenting effect,[1]; normal human melanocytes,showed a depigmenting effect
same,cytotoxicity,"[1]; normal human melanocytes, in the concentration range tested",without cytotoxicity
same,Relative expression (UA) of HAS3,"[2]; 30 μM, 24 hours, human epidermal keratinocytes, individual replicates (n=3)",3.44E−03 UA and 3.32E−03 UA and 3.61E−03 UA
same,Fold change Mean of HAS3 expression vs control,"[2]; 30 μM, 24 hours, mean of n=3",2.45
same,Fold change (Nb) of HAS3 expression,"[2]; 30 μM, 24 hours, vs control, individual replicates (n=3)",2.432 Nb and 2.35 Nb and 2.553 Nb
same,cytotoxicity,"[2]; human epidermal keratinocytes, at 30 μM",without cytotoxicity
